The values below come from patent US7803757B2, “Peptides based on the sequence of human lactoferrin and their use” (PharmaSurgics in Sweden AB, priority 1998, dated 2010).

Square brackets hold non-standard residues; d marks the D form. Ends that are not written are not given here. Orn = NCCC[C@H](N)C(=O)O

Holding throughout (assay type): cell-based
The test system of one assay is C. neoformans. Kind of assay: fungicidal activity MMC99%, C. neoformans (Example 27). The following applies: BHI diluted 1/100 (Table 23). The protocol:
In the examples, the minimal microbicidal concentrations (MMC) and minimal inhibitory concentrations (MIC) were determined as follows, unless otherwise specified in the examples. Bacterial or fungal strains were cultured in BHI medium over night at 37° C. A volume of the culture was transferred to a new tube with BHI and incubated for two more hours. Thereafter the cells were spun down and the pellet was suspended in BHI medium diluted 1/100 (1% BHI). The concentration of bacterial or fungal cells was spectrophotometrically determined at 650 nm. The microbial concentrations were also determined by viable counts. Peptides serially diluted in 1% BHI by twofold or tenfold steps were added in triplicate to the wells of a microtiterplate (200 μl per well). […] The microplate was incubated for another 20 hours at 37° C. and thereafter analysed spectrophotometrically at 650 nm in a microplate reader (Emax, Molecular Devices, USA). […] The MIC value was defined as the concentration giving no increase in the absorbance value above the background level after 20 hours of incubation.
In this example the fungicidal activity of three of the peptides according to the invention was studied, and tested against three different fungi. […] The concentration of each peptide needed to kill 99% of the fungi (MMC99%) was determined.

For assay [1], the system named is C. albicans. Nature of the assay: MMC99% of modified peptides, C. albicans (Example 25). Conditions: BHI diluted 1/100, pH approximately 6.7-6.9 (Table 21). The protocol: (§1) In the examples, the minimal microbicidal concentrations (MMC) and minimal inhibitory concentrations (MIC) were determined as follows, unless otherwise specified in the examples. Bacterial or fungal strains were cultured in BHI medium over night at 37° C. A volume of the culture was transferred to a new tube with BHI and incubated for two more hours. Thereafter the cells were spun down and the pellet was suspended in BHI medium diluted 1/100 (1% BHI). The concentration of bacterial or fungal cells was spectrophotometrically determined at 650 nm. The microbial concentrations were also determined by viable counts. Peptides serially diluted in 1% BHI by twofold or tenfold steps were added in triplicate to the wells of a microtiterplate (200 μl per well). The bacterial or fungal cell solutions were added in 10 μl volumes to give a final concentration of approximately 1-5×10^5 cells per ml in the well. The microplate was incubated at 37° C. in a humid chamber for two hours. Thereafter 5 μl was taken from each well and added as a drop onto a blood agar plate and incubated over night at 37° C. The microplate was incubated for another 20 hours at 37° C. and thereafter analysed spectrophotometrically at 650 nm in a microplate reader (Emax, Molecular Devices, USA). The concentration of peptide causing a 99% reduction of the inoculum after 2 hours of incubation was defined as the MMC99%. The MIC value was defined as the concentration giving no increase in the absorbance value above the background level after 20 hours of incubation.
(§2) In this example the fungicidal, and bactericidal effects of the different peptides obtained in examples 18-21 were studied. C. albicans, E. coli and S. aureus, respectively, were incubated in BHI medium diluted 1/100, with a pH of approximately 6.7-6.9. The concentration of each peptide needed to kill 99% of the microorganisms (MMC99%) was determined.

For assay [2], the system named is E. coli. Nature of the assay: MMC99% of modified peptides, E. coli (Example 25). Conditions: BHI diluted 1/100, pH approximately 6.7-6.9 (Table 21). As to the method: as §1, §2
In assay [3] the test system is C. albicans. Nature of the assay: fungicidal activity MMC99%, C. albicans (Example 27). Conditions: BHI diluted 1/100 (Table 23). As to the method: as §1
(§3) In this example the fungicidal activity of three of the peptides according to the invention was studied, and tested against three different fungi. The fungi were incubated in BHI medium diluted 1/100. The concentration of each peptide needed to kill 99% of the fungi (MMC99%) was determined.

For assay [4], the system named is C. albicans. Nature of the assay: microbicidal activity MMC99%, C. albicans (Example 28). The following applies: C. albicans (Table 24). The protocol: as §1
(§4) In this example the microbicidal activity of eight of the peptides according to the invention was studied, and tested against E. coli O6K5 and C. albicans.
(§5) The concentration of each peptide needed to kill 99% of the microorganisms (MMC99%) was determined.

The next assay deals with E. coli O6K5. Kind of assay: microbicidal activity MMC99%, E. coli O6K5 (Example 28). The following applies: E. coli O6K5 (Table 24). As to the method: as §1, §4, §5
For a further assay, the system named is C. glabrata. Kind of assay: fungicidal activity MMC99%, C. glabrata (Example 27). The following applies: BHI diluted 1/100 (Table 23). The protocol:
as §1, §3

Assay [5] concerns S. aureus. Kind of assay: MMC99% of modified peptides, S. aureus (Example 25). Conditions: BHI diluted 1/100, pH approximately 6.7-6.9 (Table 21). As to the method:
as §1, §2

In assay [6] the test system is E. coli. Kind of assay: MMC99% of modified peptides, E. coli (Example 26). The following applies: BHI diluted 1/100, pH approximately 6.7-6.9 (Table 22). As to the method: as §1
(§6) In this example the fungicidal, and bactericidal effects of the different peptides obtained in example 22 were studied. C. albicans, E. coli and S. aureus, respectively, were incubated in BHI medium diluted 1/100, with a pH of approximately 6.7-6.9. The concentration of each peptide needed to kill 99% of the microorganisms (MMC99%) was determined.

Assay [7] deals with S. aureus. Kind of assay: MMC99% of modified peptides, S. aureus (Example 26). The following applies: BHI diluted 1/100, pH approximately 6.7-6.9 (Table 22). The protocol:
as §1, §6

A further assay concerns E. faecalis. Kind of assay: killing of bacteria at fixed peptide concentration, E. faecalis (Example 12). The following applies: peptide 25 μg/ml. The protocol:
(§7) In this example, the peptides according to the invention were used to study the effect on the killing of different bacteria.
(§8) The peptides were used at a concentration of 25 μg/ml.

For the next assay, the system named is E. coli O6. The gist of the method: (§9)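 Microbes at ~1–5×10^5 cells/mL in 1% BHI exposed to peptides (1, 10, 25, 100 µg/ml) at 37 °C. MMC99%: concentration killing 99% of inoculum after 2 h, by spotting onto blood agar. MIC: no absorbance rise at 650 nm above background after a further 20 h.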
For another assay, the system named is C. albicans (ATCC64549). The gist of the method: as §9
The test system of assay [8] is C. albicans yeast cells (ATCC64549). Kind of assay: killing and growth inhibition of C. albicans at pH 4.5 (Example 11). On the set-up: key to C. albicans inhibition (OD650): + = no increase in OD650 is seen; − = OD650 continues to increase. Conditions: pH 4.5, 1% BHI, 25 μg/ml of the peptide. Summed up:
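Yeast cells exposed 2 h at pH 4.5 to 25 µg/ml peptide in 1% BHI, then plated on blood agar. Killing scored as 100% and 99% fungicidal effect; growth inhibition read as no OD650 increase after a further 18 h.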

The subject of the next assay is K. pneumoniae. Kind of assay: killing of bacteria at fixed peptide concentration, K. pneumoniae (Example 12). Conditions: peptide 25 μg/ml. As to the method: as §7, §8
Assay [9] has as its system C. albicans. Nature of the assay: MMC99% of modified peptides, C. albicans (Example 26). The following applies: BHI diluted 1/100, pH approximately 6.7-6.9 (Table 22). As to the method:
as §1, §6

Assay [10] deals with S. aureus. Nature of the assay: killing of bacteria at fixed peptide concentration, S. aureus (Example 12). Conditions: peptide 25 μg/ml. The protocol: as §7, §8
A further assay has as its system S. epidermis. Kind of assay: killing of bacteria at fixed peptide concentration, S. epidermis (Example 12). Conditions: peptide 25 μg/ml. As to the method: as §7, §8
The next assay concerns P. aeruginosa. Kind of assay: killing of bacteria at fixed peptide concentration, P. aeruginosa (Example 12). Conditions: peptide 25 μg/ml. The protocol: as §7, §8

In the case of “C-F-Q-W-Orn-R-N-M-R-K-V-R (CFQW[Orn]RNMRKVR) [SEQ. ID. NO. 87]”, the MMC99% was 3.1 in the assay with C. neoformans; 3 with C. albicans [1]; 6 in the assay with E. coli [2]; 6.3 in the assay on C. albicans [3]; 5 in the assay on C. albicans [4]; 5 with E. coli O6K5. Further, the values for the MMC99% in the assay with C. glabrata and in the assay with S. aureus [5] were more than 50 and “≦3.5”, respectively.
“CFQWQRNMRKVR [Peptide 46, C-F-Q-W-Q-R-N-M-R-K-V-R]”: the MMC99% in the assay with E. coli [6] was 6; with C. albicans [1], 12; in the assay with E. coli [2] it was 12; with S. aureus [7], 12; in the assay on C. albicans [3], 12.5; with C. albicans [4], 10. In addition, the MMC99% came to 10 µg/mL in the assay with E. coli O6 (E. coli O6, tested at 1, 10, 25 and 100 μg/ml of peptide); 10 µg/mL in the assay on C. albicans (ATCC64549) (C. albicans, tested at 1, 10, 25 and 100 μg/ml of peptide); 10 in the assay on E. coli O6K5; 50 in the assay on C. glabrata; 12 in the assay on C. albicans [9]; 7 with S. aureus [5]. For the same substance, the “killing of bacteria: E. faecalis” value in the assay with E. faecalis is “+ (+ = 99% of the bacteria are killed)”. In addition, the minimal inhibitory concentration (MIC) in the assay on E. coli O6 (O6) and with C. albicans (ATCC64549) (ATCC64549) was 10 µg/mL in each case. The “C. albicans inhibition (OD650)” value in assay [8] (OD650 after an additional 18 hours) is “+”. Further, the “C. albicans killing: 99%” value in [8] (2 hours) is listed as “+ (+ = 100/99% of the bacteria are killed)”. Moreover, the “C. albicans killing: 100%” value in assay [8] (2 hours) was “+ (+ = 100/99% of the bacteria are killed)”. Also, the “killing of bacteria: K. pneumoniae” value with K. pneumoniae is on record as “+ (+ = 99% of the bacteria are killed)”. Further, in the assay on S. aureus [10], the “killing of bacteria: S. aureus” value is “+ (+ = 99% of the bacteria are killed)”. In addition, the “killing of bacteria: S. epidermis” value in the assay with S. epidermis is recorded as “+ (+ = 99% of the bacteria are killed)”. For the same substance, in the assay on P. aeruginosa, the “killing of bacteria: P. aeruginosa” value is on record as “+ (+ = 99% of the bacteria are killed)”.
